Measured values reported in US20240391923A1, “METHIONINE ADENOSYLTRANSFERASE 2A INHIBITOR FOR TREATING MTAP DELETION-TYPE CANCER” (SUZHOU GENHOUSE BIO CO., LTD., priority 2022, published 2024).
Where two headings read alike, the source gives them in different places.

How the values were obtained:
Hut-78 cell strain = assay: Tumor cell proliferation inhibition assay (CellTiter-Glo), Hut-78; type: cell-based; conditions: Hut-78 cells, 5-day treatment
Description: (§1) After the HCT116-MTAP-knockout (−/−) cell strain, the HCT116-MTAP wild-type(+/+)-cell strain, the DOHH-2 cell strain, or the Hut-78 cell strain was treated with the test compound for 5 days, the ATP level was measured using a CellTiter-Glo kit of Promega to evaluate the inhibition of the test compound against the growth of the tumor cell strain.
(§2) In the present application, the HCT116-MTAP-knockout (−/−) cell strain, the HCT116-MTAP wild-type (+/+)-cell strain, the DOHH-2 cell strain, or the Hut-78 cell strain was seeded into a 96-well cell culture plate at an appropriate cell density. After 24 h, the cells were treated using the test compounds diluted 1:3 fold at the highest concentration of 10 μM for 10 gradients, and a DMSO treatment group was set up separately. The cells were cultured in a 37° C./5% CO2 incubator for 5 days.

[1] = molecular target: MAT2A recombinant protein (Homo sapiens, UniProt P31153); assay: MAT2A inhibitory activity (malachite green colorimetric enzyme assay); type: biochemical
In short: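 Recombinant human MAT2A with L-methionine and ATP in 50 mM HEPES pH 7.5, 50 mM KCl, 10 mM MgCl2, 10 mM DTT, 60 min at room temperature. Phosphate released detected by malachite green reagent (15 min) at 630 nm. Ten-point 1:3 series from 1000 nM final; IC50 by variable-slope non-linear regression.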

[2] = system: SDMA in human colon cancer cell line HCT116; assay: Cell symmetric dimethylarginine (SDMA) test, In-cell Western, HCT116 (MTAP wild-type); type: cell-based; conditions: Homo sapiens, HCT-116, 96 h
In short: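 HCT116 cells treated 4 days at 37° C with compound, top concentration 6 μM, 1:4 dilutions, 6 points, versus DMSO. Fixed cells stained for SDMA with DRAQ5 normalisation; 800/700 nm ratio after background subtraction fitted by non-linear regression for IC50.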

[3] = system: SDMA in HCT116-MTAP-knockout cell line; assay: Cell symmetric dimethylarginine (SDMA) test, In-cell Western, HCT116-MTAP-knockout; type: cell-based; conditions: Homo sapiens, 96 h
[4] = system: HCT116-MTAP-knockout (−/−) cell strain; assay: Tumor cell proliferation inhibition assay (CellTiter-Glo), HCT116-MTAP-knockout (-/-); type: cell-based; conditions: Homo sapiens, 120 h, 5-day treatment
Description: as §1, §2

[5] = Pharmacokinetic test in mice (IV and PO); type: in vivo; conditions: BALB/c mice; for AUC (in words) / half-life (T½) (in words): summary of Table 7; for AUC / clearance / bioavailability / half-life / Vd: mouse, plasma; for half-life: read-out: T½ (converted); for Vd: read-out: Vz
[6] = system: HCT116-MTAP wild-type (+/+)-cell strain; assay: Tumor cell proliferation inhibition assay (CellTiter-Glo), HCT116-MTAP wild-type (+/+); type: cell-based; conditions: Homo sapiens, 120 h, 5-day treatment
Description: as §1, §2

[7] = Homo sapiens, HuT78, 120 h, IC50 score, read-out: Tumor cell 5-day relative growth inhibition (Hut-78) (nM), score
[8] = Homo sapiens, HuT78, 120 h, IC50 value, read-out: Tumor cell 5-day relative growth inhibition (Hut-78)
[9] = IC50 score class, read-out: MAT2A Inhibition (score)
[10] = IC50 score class, read-out: Cell 96 h SDMA Inhibition (HCT116-MTAP+/+) (score)
[11] = read-out: Cell 96 h SDMA inhibition (HCT116-MTAP+/+)
[12] = IC50 score class, read-out: Cell 96 h SDMA Inhibition (HCT116-MTAP−/−) (score)
[13] = read-out: Cell 96 h SDMA Inhibition (HCT116-MTAP−/−)
[14] = HCT116-MTAP-knockout (−/−) cells, IC50 score, read-out: Tumor cell 5-day relative growth inhibition (HCT116-MTAP−/−) (nM), score
[15] = HCT116-MTAP-knockout (−/−) cells, IC50 value, read-out: Tumor cell 5-day relative growth inhibition (HCT116-MTAP−/−)
[16] = HCT116-MTAP wild-type (+/+) cells, IC50 score, read-out: Tumor cell 5-day relative growth inhibition (HCT116-MTAP+/+) (nM), score
[17] = HCT116-MTAP wild-type (+/+) cells, IC50 value, read-out: Tumor cell 5-day relative growth inhibition (HCT116-MTAP+/+)

Sequence of MAT2A recombinant protein (P31153 whole entry): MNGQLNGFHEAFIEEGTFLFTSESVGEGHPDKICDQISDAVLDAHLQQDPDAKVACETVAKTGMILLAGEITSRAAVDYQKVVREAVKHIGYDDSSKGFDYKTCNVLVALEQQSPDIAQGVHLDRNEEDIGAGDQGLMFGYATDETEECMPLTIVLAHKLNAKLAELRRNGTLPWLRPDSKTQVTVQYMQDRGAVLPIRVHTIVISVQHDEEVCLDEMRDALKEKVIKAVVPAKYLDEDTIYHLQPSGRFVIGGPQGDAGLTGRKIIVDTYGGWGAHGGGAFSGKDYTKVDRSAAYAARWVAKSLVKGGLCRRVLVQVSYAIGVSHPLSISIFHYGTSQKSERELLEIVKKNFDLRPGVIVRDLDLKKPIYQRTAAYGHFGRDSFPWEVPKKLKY

IC50 (Hut-78 cell strain; [7])	IC50 (Hut-78 cell strain; [8])	IC50 [1, 9]	IC50 ([1]; read-out: MAT2A Inhibition)	IC50 [2, 10]	IC50 [2, 11]	IC50 [3, 12]	IC50 [3, 13]	IC50 [4, 14]	IC50 [4, 15]	AUC ([5]; IV 2 mg/kg)	clearance ([5]; IV 2 mg/kg)	bioavailability ([5]; IV 2 mg/kg, PO 10 mg/kg)	half-life ([5]; IV 2 mg/kg)	Vd ([5]; IV 2 mg/kg)	AUC ([5]; PO 10 mg/kg)	half-life ([5]; PO 10 mg/kg)	IC50 [6, 16]	IC50 [6, 17]	Structure (SMILES)	also measured
< 500 nM	206 nM	< 100 nM	55.2 nM	1000 to 3000 nM	1190 nM	200 to 1000 nM	267 nM	–	–	–	–	–	–	–	–	–	–	–	Cn1cc2c(n1)c(=O)n(-c1ccnn1C)c1cc(Cl)ccc21 [Compound B58]	–
< 500 nM	14.6 nM	< 100 nM	54.8 nM	< 200 nM	53.9 nM	< 200 nM	27.8 nM	–	–	–	–	–	–	–	–	–	–	–	Cc1ncccc1-n1c(=O)c2[nH]ncc2c2ccc(Cl)cc21 [Compound B103]	–
≥ 2000 nM	> 2000 nM	< 100 nM	53.7 nM	–	–	–	–	–	–	–	–	–	–	–	–	–	–	–	Cn1cc2c(n1)c(=O)n(Cc1ccn[nH]1)c1nc(C(F)(F)F)ccc21 [Compound B123]	–
–	–	–	–	–	–	–	–	–	–	–	–	–	–	–	–	–	–	–	Cc1ncccc1-n1c(=O)c2nn(C)cc2c2ccc(C(F)(F)F)nc21 [Compound B179]	IC50 (Hut-78 cell strain; IC50 score, read-out: Tumor cell 5-day relative growth inhibition (Hut-78) (nM), score): ≥ 2000 nM; IC50 (Hut-78 cell strain; IC50 value, read-out: Tumor cell 5-day relative growth inhibition (Hut-78)): 7990 nM
< 500 nM	108 nM	–	–	< 200 nM	130 nM	< 200 nM	47.9 nM	–	–	–	–	–	–	–	–	–	–	–	Cn1cc2c(n1)c(=O)n(-c1cccnc1C1CC1)c1nc(C(F)(F)F)ccc21 [Compound B183]	–
< 500 nM	179 nM	–	–	200 to 1000 nM	495 nM	< 200 nM	106 nM	–	–	–	–	–	–	–	–	–	–	–	Cn1cc2c(n1)c(=O)n(-c1cccnc1C#N)c1nc(C(F)(F)F)ccc21 [Compound B207]	–
–	–	< 100 nM	11 nM	> 3000 nM	7200 nM	< 200 nM	110 nM	< 500 nM	242 nM	200 µM·h	0.3 mL/min/kg	80%	10.8 h	0.3 L/kg	807 µM·h	18 h	500 to 2000 nM	1100 nM	O=c1c2nn(C(F)F)cc2c2ccc(C(F)(F)F)nc2n1-c1cccc2[nH]ncc12 [Compound B245]	AUC (in words) [5]: relatively high; half-life (T½) (in words) [5]: relatively long
–	–	< 100 nM	23.7 nM	–	–	< 200 nM	67 nM	< 500 nM	382 nM	245 µM·h	0.317 mL/min/kg	126%	5.73 h	0.2 L/kg	1470 µM·h	5.79 h	500 to 2000 nM	1630 nM	Cc1c2c(nn1C(F)F)c(=O)n(-c1cccc3[nH]ncc13)c1nc(C(F)(F)F)ccc21 [Compound B254]	AUC (in words) [5]: relatively high; half-life (T½) (in words) [5]: relatively long
–	–	< 100 nM	16.9 nM	–	–	< 200 nM	28 nM	< 500 nM	29.5 nM	37.8 µM·h	2.28 mL/min/kg	175%	5.28 h	1 L/kg	331 µM·h	8.61 h	500 to 2000 nM	577 nM	[2H]C([2H])([2H])n1cc2c(n1)c(=O)n(-c1cccc3[nH]ncc13)c1nc(C(F)(F)F)ccc21 [Compound B256]	AUC (in words) [5]: relatively high; half-life (T½) (in words) [5]: relatively long
–	–	< 100 nM	15 nM	> 3000 nM	> 10000 nM	< 200 nM	12 nM	< 500 nM	128 nM	31.5 µM·h	2.42 mL/min/kg	65%	6.4 h	1.34 L/kg	93.4 µM·h	8 h	≥ 2000 nM	> 10000 nM	O=c1c2nn(C(F)F)cc2c2cc(F)c(C3CC3)nc2n1-c1cccnc1C1CC1 [Compound B361]	–
–	–	< 100 nM	19 nM	> 3000 nM	> 10000 nM	< 200 nM	26 nM	–	–	–	–	–	–	–	–	–	–	–	N#Cc1cc2c3c[nH]nc3c(=O)n(-c3cccc4[nH]ncc34)c2cc1Cl [Compound B394]	IC50 ([4]; HCT116-MTAP−/− cells, IC50 class score, read-out: Tumor cell 5-day relative growth inhibition (HCT116-MTAP−/−) (nM), score): < 500 nM; IC50 ([4]; HCT116-MTAP−/− cells, read-out: Tumor cell 5-day relative growth inhibition (HCT116-MTAP−/−)): 359 nM; IC50 ([6]; HCT116-MTAP+/+ cells, IC50 class score, read-out: Tumor cell 5-day relative growth inhibition (HCT116-MTAP+/+) (nM), score): ≥ 2000 nM; IC50 ([6]; HCT116-MTAP+/+ cells, read-out: Tumor cell 5-day relative growth inhibition (HCT116-MTAP+/+)): 6840 nM
